In patent US20100247435A1, “MEASUREMENT OF NEURAL ACTIVITY” (priority 2007, published 2010):

Experiment: Biodistribution of 3H compound in rat
Format: in vivo, Rats (Wistar)
Conditions: Wistar rat, 2, 5, 20 and 40 min p.i.
Description: A tritiated version of 3-[2,4-Difluoro-phenoxy]-phenyl-pyrazole-1-carboxylic acid amide (“Hammersmith compound” in FIG. 1) was custom prepared by GE Healthcare, Cardiff.
Rats (Wistar, ca. 150 g; Charles River UK Ltd) were injected with 0.37 MBq of [^3H]-3-[2,4-Difluoro-phenoxy]-phenyl-pyrazole-1-carboxylic acid amide, as an intravenous bolus via the tail vein. Rats were killed by cervical dislocation at 2, 5, 20 and 40 min post injection (p.i.). Brain (separated as cortex and hippocampus), blood, and major organs were collected, weighed and burned using a Packard Tissue Oxidizer model 307 (Packard Instrument Co., Meriden, Conn.). Samples were then counted in a β-counter (Rack Beta, Perkin Elmer LAS (UK) Ltd).

For `NC(=O)n1ccc(-c2ccc(Oc3ccc(F)cc3F)cc2)n1` [[^3H]-3-[2,4-Difluoro-phenoxy]-phenyl-pyrazole-1-carboxylic acid amide], the time activity curves (0.37 MBq i.v., FIG. 1) was “consistent with reversible binding” and the “brain uptake of the compound” value (0.37 MBq intravenous bolus via tail vein, % id/g shown in FIG. 1) was “good”.
